From paper PMC3253173 (Free radical biology & medicine, 2011)

Target: T1, gp91phox (Homo sapiens, UniProt P04839)
T1 sequence (P04839 2-570): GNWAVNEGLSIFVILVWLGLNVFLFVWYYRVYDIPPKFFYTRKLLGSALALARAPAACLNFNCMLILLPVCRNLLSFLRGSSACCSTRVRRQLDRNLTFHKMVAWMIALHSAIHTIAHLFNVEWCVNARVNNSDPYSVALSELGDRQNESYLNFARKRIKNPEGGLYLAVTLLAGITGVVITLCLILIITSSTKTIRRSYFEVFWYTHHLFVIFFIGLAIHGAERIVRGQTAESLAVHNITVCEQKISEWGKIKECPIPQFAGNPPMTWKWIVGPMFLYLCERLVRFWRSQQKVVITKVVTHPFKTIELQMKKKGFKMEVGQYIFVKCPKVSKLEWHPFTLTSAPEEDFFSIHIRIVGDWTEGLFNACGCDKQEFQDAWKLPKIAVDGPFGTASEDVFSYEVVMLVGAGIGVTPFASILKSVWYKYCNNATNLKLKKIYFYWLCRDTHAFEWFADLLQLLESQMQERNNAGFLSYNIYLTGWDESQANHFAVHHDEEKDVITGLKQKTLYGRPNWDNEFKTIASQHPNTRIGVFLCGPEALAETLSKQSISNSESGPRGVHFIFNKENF
T1 sequence (P13498 2-195 partner): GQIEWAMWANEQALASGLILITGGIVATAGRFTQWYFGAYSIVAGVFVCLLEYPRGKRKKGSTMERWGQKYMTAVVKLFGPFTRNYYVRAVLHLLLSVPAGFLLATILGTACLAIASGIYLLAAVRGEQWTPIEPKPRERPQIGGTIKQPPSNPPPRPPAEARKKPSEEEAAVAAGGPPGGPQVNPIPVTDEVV
Experiment: saturation radioligand binding on COS-cytob558 membranes

C=C(C)[C@H]1Cc2c(ccc3c2O[C@@H]2COc4cc(OC)c(OC)cc4[C@@H]2C3=O)O1 [rotenone]
Kd: 21.2 ± 3.47 nM
